Test results reported in US20070196514A1, “Prostate cancer treatment with glycogen synthase kinase-3beta inhibitors” (priority 2006, published 2007).

Tests used:
PC-3 cells [1] = assay: clonogenic assay; type: cell-based, human; details: LiCl 10 mM, 14 days
Protocol: For clonogenic assays, 1.0×10^3 cells were seeded in a 35-mm dish and cultured in a medium containing LiCl at the indicated doses. The cultures were monitored daily for colony formation. On day 14, the cultures were washed with phosphate-buffered saline (“PBS”), fixed, and stained as described previously (Liao 2005). The colonies were counted and photographed under an inverted microscope.
Next, the clonogenic assay was used to test the effect of LiCl on cell colony formation. The clonogenic survival fractions of the cells cultured in the presence or absence of increasing concentration of LiCl were measured in two cell lines, androgen refractory PC-3 (data shown) and androgen-responsive LNCaP (data not shown).

LNCaP cells [2] = assay: MTT cell growth assay; type: cell-based, human; details: equimolecular concentrations of LiCl, NaCl, KCl, three days
Protocol: For MTT-based cell growth assays, cells seeded in 96-well plates were serum-starved for 48 hours, and were then treated with vehicle or different reagents for different time periods as indicated in the figures. MTT assay were carried out using a pre-assembled kit (Sigma) according to the manufacturer's manual.
To rule out the eventual intervention of the chloride anion and the osmotic disturbance, the effect of LiCl was compared with sodium chloride (“NaCl”) and potassium chloride (“KCl”) at equimolecular concentrations in both LNCaP and PC-3 cell lines. In addition, the androgen-insensitive C4-2 cell line was included. To easily handle the experiments while multiple comparisons were taken in place, a MTT assay was used to assess cell growth.
Lastly, two GSK-3β-specific small chemical inhibitors, SB216763 and BIO, were used to verify that LiCl-induced suppression of cell growth is due to GSK-3β inhibition. LNCaP cells were seeded as above and then treated with increasing doses of the inhibitors in a full culture medium. Cell growth was assessed three days later by MTT assay.

PC-3 xenografts = assay: mouse xenograft model, protocol B (palpable tumors), with in vivo BrdU labeling and TUNEL; set-up: species or system nude mice
Protocol: All animal studies were conducted under an approved Institutional Animal Care and Use Committee protocol. Single cell suspensions (2×10^6 cells in 0.1 ml of RPMI1640 medium plus 10% FBS) were inoculated subcutaneously (s.c.) into the rear flanks (two sites/mouse) of 6 to 7 weeks old male nude mice (Charles River, Wilmington, Mass.). For protocol A, mice were randomly divided into two groups (5 animals each). On next day after inoculation, one group of animals received i.p. injection of LiCl at a daily dose of 2 mg/kg body weight. LiCl was dissolved in PBS. The control groups of animals received PBS alone in the same volume. Xenograft development and growth were monitored for 8 weeks. The tumor dimensions were measured twice a week. The tumor volume was calculated by the formula of L×W×H×0.5236 (Miyake 2001). At the end of treatment, xenograft tumors were extirpated, and the final tumor size and weight, as well as animal weight were measured. For protocol B, treatment began until tumor became palpable or 50 mm^3 in size, and LiCl or PBS was injected (5 animals each group) as above for a two-week course. Tumor size and weight were measured at the end of treatment. For BrdU in vivo labeling, the animals were injected i.p. with 0.5 ml of a 10-mM BrdU solution (Invitrogen) 2 hours before sacrifice. For experiments involving LNCaP-BclxL SB216763 subline cells (Liao 2005) were inoculated as above, and SB216763 treatment was started two weeks later when palpable xenografts were established. […] Tumor growth was monitored as discussed herein. […]
In protocol B, animals were treated with LiCl at 2 mg/kg for a two-week course when PC-3 xenografts were palpable or about […] in size. Tumor weight was measured at the endpoint of treatment and was compared between LiCl-treated and PBS control groups.
Next, the DNA synthesis associated with LiCl-induced tumor suppression in vivo was also investigated. DNA synthesis was measured by an in vivo BrdU incorporation assay. Meanwhile, apoptotic events, if any, were detected using TUNEL assay. […]

LNCaP cells [3] = assay: trypan blue viable cell counting; type: cell-based, human
Protocol: (§1) For cell counting assay, cells were seeded at the density of 5×10^4 cells in 12-well plates in duplicates and allowed for attachment overnight. Cells were harvested daily for three days and the number of viable cells was counted using a hemocytometer after staining in trypan blue solution (Liao 2003).
(§2) First, the effect of LiCl on cell growth was investigated. AR-positive, androgen-dependent LNCaP cells or AR-null PC-3 cells were seeded in a 12-well plate overnight and then treated with or without LiCl in different doses.

PC-3 cells [4] = assay: trypan blue viable cell counting; type: cell-based, human
Protocol: as §1, §2

LNCaP cells [5] = assay: cell cycle analysis by flow cytometry (PI); type: cell-based, human; details: serum-starved 24 hours then full media with LiCl up to 24 hours
Protocol: For cell cycle analysis, serum-starved cells were left untreated or treated with different inhibitors for various time periods as indicated in the figures. After trypsinization, the cells were fixed and stained with propidium iodide (“PI”). Cell cycle distribution of PI-labeled cells was analyzed on a fluorescence activated cell sorter (Model EPICS XL-MCL, Beckman-Coulter Co., Fullerton, Calif.) as described previously (Miyake 2001).
LNCaP cells were first serum-starved for 24 hours, and were then released by returning them to full culture media in the presence or absence of LiCl for up to 24 hours. Cell cycle distribution was analyzed by flow cytometry (“FCM”). […] When serum was added back in the culture (the control), cells re-entered into cell cycle.

[6] = LiCl at a dose of less than 3 mM, up to three days

## [Cl-].[Li+] [LiCl, Lithium chloride]
PC-3 cells [1]
  clonogenic surviving fractions: significantly suppressed
LNCaP cells [2]
  cell growth inhibition (MTT): dramatic inhibition
PC-3 xenografts; LiCl 2 mg/kg
  TUNEL staining (apoptotic events) in xenografts, LiCl vs PBS: did not show any difference
PC-3 xenografts; in vivo BrdU incorporation, BrdU injected two hours before sacrifice
  BrdU labeling in xenografts vs PBS control: significantly reduced
PC-3 xenografts; protocol B, LiCl 2 mg/kg, two-week course on palpable xenografts
  tumor weight vs PBS control: significantly reduced
LNCaP cells [3]; LiCl 10 mM
  inhibition of cell growth (viable cell count): significantly inhibited
LNCaP cells [3]; LiCl 10 mM (no treatment 23.7 hours)
  mean doubling-time: 33.3 h
LNCaP cells [3]; [6]
  inhibition of cell growth (viable cell count): no obvious inhibition
PC-3 cells [4]; LiCl 10 mM
  inhibition of cell growth (viable cell count): significantly inhibited
PC-3 cells [4]; LiCl 10 mM (no treatment 21.5 hours)
  mean doubling-time: 30.2 h
PC-3 cells [4]; [6]
  inhibition of cell growth (viable cell count): no obvious inhibition
LNCaP cells [5]
  portion of S-phase cells: dramatically increased
